# The source made the active and inactive calls. No cut-off for these calls is given here.
# Assays:
# Format in all cases: nucleic-acid assay
# Nucleic Acid [1] = assay: Binding affinity to Schizosaccharomyces pombe Thiolated Lys-tRNA using 32P-labelled probe by PAGE analysis
# Nucleic Acid [2] = assay: Binding affinity to Schizosaccharomyces pombe Non-thiolated Met-tRNA using 32P-labelled probe by PAGE analysis
# Nucleic Acid [3] = assay: Binding affinity to ctu1-deficient Schizosaccharomyces pombe Lys-tRNA using 32P-labelled probe by PAGE analysis
substance,measurement,setting,value
[p-(N-acrylamino)-phenyl]mercuric chloride,Activity,Nucleic Acid [1],Active
same,Activity,Nucleic Acid [2],inactive
same,Activity,Nucleic Acid [3],inactive
